According to PubChem BioAssay (NCI):
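GI50 = concentration required for 50% inhibition of growth. TGI: total growth inhibition.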

What was measured:
Test in all cases: inhibition of tumour cell growth, NCI panel, 384-well format
786-0 renal = tested on: 786-0 renal
A498 renal = tested on: A498 renal
A549 NSCLC = tested on: A549 NSCLC
ACHN renal = tested on: ACHN renal
BT-549 breast = tested on: BT-549 breast
CAKI-1 renal = tested on: CAKI-1 renal
CCRF-CEM leukemia = tested on: CCRF-CEM leukemia
DU-145 prostate = tested on: DU-145 prostate
EKVX NSCLC = tested on: EKVX NSCLC
HCT-116 colon = tested on: HCT-116 colon
HCT-15 colon = tested on: HCT-15 colon
HL-60(TB) leukemia = tested on: HL-60(TB) leukemia
HOP-62 NSCLC = tested on: HOP-62 NSCLC
HOP-92 NSCLC = tested on: HOP-92 NSCLC
HS 578T breast = tested on: HS 578T breast
HT29 colon = tested on: HT29 colon
IGROV1 ovarian = tested on: IGROV1 ovarian
K-562 leukemia = tested on: K-562 leukemia
KM12 colon = tested on: KM12 colon
LOX IMVI melanoma = tested on: LOX IMVI melanoma
M14 melanoma = tested on: M14 melanoma
MALME-3M melanoma = tested on: MALME-3M melanoma
MCF7 breast = tested on: MCF7 breast
MDA-MB-231 breast = tested on: MDA-MB-231 breast
MDA-MB-435 melanoma = tested on: MDA-MB-435 melanoma
MDA-MB-468 breast = tested on: MDA-MB-468 breast
MOLT-4 leukemia = tested on: MOLT-4 leukemia
NCI-H226 lung = tested on: NCI-H226 lung
NCI-H23 lung = tested on: NCI-H23 lung
NCI-H322M lung = tested on: NCI-H322M lung
NCI-H522 lung = tested on: NCI-H522 lung
NCI/ADR-RES ovarian = tested on: NCI/ADR-RES ovarian
OVCAR-3 ovarian = tested on: OVCAR-3 ovarian
OVCAR-4 ovarian = tested on: OVCAR-4 ovarian
OVCAR-5 ovarian = tested on: OVCAR-5 ovarian
OVCAR-8 ovarian = tested on: OVCAR-8 ovarian
PC-3 prostate = tested on: PC-3 prostate
RPMI-8226 leukemia = tested on: RPMI-8226 leukemia
RXF 393 renal = tested on: RXF 393 renal
SF-268 CNS = tested on: SF-268 CNS
SF-295 CNS = tested on: SF-295 CNS
SF-539 CNS = tested on: SF-539 CNS
SK-MEL-2 melanoma = tested on: SK-MEL-2 melanoma
SK-MEL-28 melanoma = tested on: SK-MEL-28 melanoma
SK-OV-3 ovarian = tested on: SK-OV-3 ovarian
SN12C renal = tested on: SN12C renal
SNB-19 CNS = tested on: SNB-19 CNS
SNB-75 CNS = tested on: SNB-75 CNS
SW-620 colon = tested on: SW-620 colon
T-47D breast = tested on: T-47D breast
TK-10 renal = tested on: TK-10 renal
U251 glioblastoma = tested on: U251 glioblastoma
UACC-257 melanoma = tested on: UACC-257 melanoma
UACC-62 melanoma = tested on: UACC-62 melanoma
UO-31 renal = tested on: UO-31 renal

In the case of `CC(C)Cn1cnc2c(N)nc3ccccc3c21`, the GI50 ([…]-0 renal) is reported as > 100 µM, the TGI (786-0 renal) is reported as > 100 µM and the GI50 (A498 renal) is reported as > 100 µM. The TGI (A498 renal) was > 100 µM, the GI50 (A549 NSCLC) was > 100 µM and the TGI (A549 NSCLC) was > 100 µM. For the same molecule, the GI50 (ACHN renal) was > 100 µM, the TGI (ACHN renal) was > 100 µM and the GI50 (BT-549 breast) was > 100 µM. For the same molecule, the TGI (BT-549 breast) was > 100 µM, the GI50 (CAKI-1 renal) was > 100 µM and the TGI (CAKI-1 renal) was > 100 µM. For the same molecule, the GI50 (CCRF-CEM leukemia) was > 100 µM, the TGI (CCRF-CEM leukemia) was > 100 µM and the GI50 (DU-145 prostate) was > 100 µM. For the same molecule, the TGI (DU-145 prostate) was > 100 µM, the GI50 (EKVX NSCLC) was 67.9 µM and the TGI (EKVX NSCLC) was > 100 µM. For the same molecule, the GI50 (HCT-116 colon) was > 100 µM, the TGI (HCT-116 colon) was > 100 µM and the GI50 (HCT-15 colon) was > 100 µM. The TGI (HCT-15 colon) was > 100 µM, the GI50 (HL-60(TB) leukemia) was > 100 µM and the TGI (HL-60(TB) leukemia) was > 100 µM. The GI50 (HOP-62 NSCLC) was > 100 µM, the TGI (HOP-62 NSCLC) was > 100 µM and the GI50 (HOP-92 NSCLC) was > 100 µM. The TGI (HOP-92 NSCLC) was > 100 µM, the GI50 (HS 578T breast) was > 100 µM and the TGI (HS 578T breast) was > 100 µM. For the same molecule, the GI50 (HT29 colon) was > 100 µM, the TGI (HT29 colon) was > 100 µM and the GI50 (IGROV1 ovarian) was > 100 µM. The TGI (IGROV1 ovarian) was > 100 µM, the GI50 (K-562 leukemia) was > 100 µM and the TGI (K-562 leukemia) was > 100 µM. The GI50 (KM12 colon) was > 100 µM, the TGI (KM12 colon) was > 100 µM and the GI50 (LOX IMVI melanoma) was > 100 µM. The TGI (LOX IMVI melanoma) was > 100 µM, the GI50 (M14 melanoma) was > 100 µM and the TGI (M14 melanoma) was > 100 µM. The GI50 (MALME-3M melanoma) was > 100 µM, the TGI (MALME-3M melanoma) was > 100 µM and the GI50 (MCF7 breast) was > 100 µM. The TGI (MCF7 breast) was > 100 µM, the GI50 (MDA-MB-231 breast) was > 100 µM and the TGI (MDA-MB-231 breast) was > 100 µM. For the same molecule, the GI50 (MDA-MB-435 melanoma) was > 100 µM, the TGI (MDA-MB-435 melanoma) was > 100 µM and the GI50 (MDA-MB-468 breast) was > 100 µM. The TGI (MDA-MB-468 breast) was > 100 µM, the GI50 (MOLT-4 leukemia) was > 100 µM and the TGI (MOLT-4 leukemia) was > 100 µM. For the same molecule, the GI50 (NCI-H226 lung) was > 100 µM, the TGI (NCI-H226 lung) was > 100 µM and the GI50 (NCI-H23 lung) was > 100 µM. The TGI (NCI-H23 lung) was > 100 µM, the GI50 (NCI-H322M lung) was > 100 µM and the TGI (NCI-H322M lung) was > 100 µM. For the same molecule, the GI50 (NCI-H522 lung) was > 100 µM, the TGI (NCI-H522 lung) was > 100 µM and the GI50 (NCI/ADR-RES ovarian) was > 100 µM. For the same molecule, the TGI (NCI/ADR-RES ovarian) was > 100 µM, the GI50 (OVCAR-3 ovarian) was > 100 µM and the TGI (OVCAR-3 ovarian) was > 100 µM. The GI50 (OVCAR-4 ovarian) was > 100 µM, the TGI (OVCAR-4 ovarian) was > 100 µM and the GI50 (OVCAR-5 ovarian) was > 100 µM. The TGI (OVCAR-5 ovarian) was > 100 µM, the GI50 (OVCAR-8 ovarian) was > 100 µM and the TGI (OVCAR-8 ovarian) was > 100 µM. For the same molecule, the GI50 (PC-3 prostate) was > 100 µM, the TGI (PC-3 prostate) was > 100 µM and the GI50 (RPMI-8226 leukemia) was > 100 µM. For the same molecule, the TGI (RPMI-8226 leukemia) was > 100 µM, the GI50 (RXF 393 renal) was > 100 µM and the TGI (RXF 393 renal) was > 100 µM. The GI50 (SF-268 CNS) was > 100 µM, the TGI (SF-268 CNS) was > 100 µM and the GI50 (SF-295 CNS) was > 100 µM. For the same molecule, the TGI (SF-295 CNS) was > 100 µM, the GI50 (SF-539 CNS) was > 100 µM and the TGI (SF-539 CNS) was > 100 µM. The GI50 (SK-MEL-2 melanoma) was > 100 µM, the TGI (SK-MEL-2 melanoma) was > 100 µM and the GI50 (SK-MEL-28 melanoma) was > 100 µM. For the same molecule, the TGI (SK-MEL-28 melanoma) was > 100 µM, the GI50 (SK-OV-3 ovarian) was > 100 µM and the TGI (SK-OV-3 ovarian) was > 100 µM. The GI50 (SN12C renal) was > 100 µM, the TGI (SN12C renal) was > 100 µM and the GI50 (SNB-19 CNS) was > 100 µM. The TGI (SNB-19 CNS) was > 100 µM, the GI50 (SNB-75 CNS) was > 100 µM and the TGI (SNB-75 CNS) was > 100 µM. For the same molecule, the GI50 (SW-620 colon) was > 100 µM, the TGI (SW-620 colon) was > 100 µM and the GI50 (T-47D breast) was > 100 µM. The TGI (T-47D breast) was > 100 µM, the GI50 (TK-10 renal) was > 100 µM and the TGI (TK-10 renal) was > 100 µM. The GI50 (U251 glioblastoma) was > 100 µM, the TGI (U251 glioblastoma) was > 100 µM and the GI50 (UACC-257 melanoma) was > 100 µM. The TGI (UACC-257 melanoma) was > 100 µM, the GI50 (UACC-62 melanoma) was > 100 µM and the TGI (UACC-62 melanoma) was > 100 µM. For the same molecule, the GI50 (UO-31 renal) was > 100 µM and the TGI (UO-31 renal) was > 100 µM.
